According to US11846638B2, “Methods for detecting Na/K-ATPase-mediated Src signaling for diagnosis and prognosis of cancer” (Marshall University Research Corporation, priority 2017, dated 2023):
Entries after “also recorded” stand apart in the source; their conditions may differ.

How the values were obtained:
EGFR [1] = assay: EGFR phosphorylation at Y845 in AAC-19 and Y260A cells; type: cell-based, porcine; details: AAC-19 cells; different concentrations of EGF
Experimental: (§1) Cell culture and cell line generation. All cell lines were purchased from and maintained according to ATCC (Manassas, Va.). LLC-PK1 was serum starved before being used for signaling experiments. AAC-19, Y260A and DU145, A4-7 cell lines were cultured in the presence of 0.5% and 1% serum respectively for 24 hours before being used for the signaling experiments. LLC-PK1 cells were transfected (Lipofectamine 2000) with pEYFP-C1 vector containing α1 CD2, α2 CD2 or pEYFP-C1 empty vector. After verifying YFP expression visually, the cells were selected with 1 mg/ml G418 for one week. G418 resistant clones were selected and expanded. Cells were then cultured without G418 for at least three generations before being used for experiments. CD2N and CD2C cells were generated in similar manner. Y260A cells were generated by transfecting PY-17 cells with pRC/CMV-α1 AACm1 vector harboring mutation at Y260 and selected with ouabain (3 μM). Ouabain-resistant clones were isolated and expanded into stable cell lines. The cells were cultured for at least 3 generations without ouabain before being used for any experiment. […]
(§2) Immunoblot, Immunoprecipitation and Immunostaining Analysis. […] Intensity of bands were quantified with ImageJ software (NIH). […] Precipitated proteins were then analyzed as described previously. […]

[2] = tested on: α1 Na/K-ATPase Y260 phosphorylation; assay: Y260 phosphorylation of α1 Na/K-ATPase in LLC-PK1 cells (immunoblot); type: cell-based, porcine
Experimental: (§3) Cell culture and cell line generation. All cell lines were purchased from and maintained according to ATCC (Manassas, Va.). LLC-PK1 was serum starved before being used for signaling experiments. AAC-19, Y260A and DU145, A4-7 cell lines were cultured in the presence of 0.5% and 1% serum respectively for 24 hours before being used for the signaling experiments. LLC-PK1 cells were transfected (Lipofectamine 2000) with pEYFP-C1 vector containing α1 CD2, α2 CD2 or pEYFP-C1 empty vector. After verifying YFP expression visually, the cells were selected with 1 mg/ml G418 for one week. G418 resistant clones were selected and expanded. Cells were then cultured without G418 for at least three generations before being used for experiments. CD2N and CD2C cells were generated in similar manner. Y260A cells were generated by transfecting PY-17 cells with pRC/CMV-α1 AACm1 vector harboring mutation at Y260 and selected with ouabain (3 μM). Ouabain-resistant clones were isolated and expanded into stable cell lines. The cells were cultured for at least 3 generations without ouabain before being used for any experiment. DU-P1, A4-7 and A4-3 cell lines were generated by transfecting DU145 cells with a α1 Na/K-ATPase-specific siRNA containing vector and selecting with Puromycin as described above. All constructs were verified by DNA sequencing.
(§4) Immunoblot, Immunoprecipitation and Immunostaining Analysis. Immunoblot assays were performed as described previously. Intensity of bands were quantified with ImageJ software (NIH). Immunoprecipitation was performed by adding 5 μg of anti-Src (Millipore Cat #05-184) antibody to 500 μg of cell lysate (1 μg/μl concentration) or 8 μg of anti-α1 Na/K-ATPase antibody (Millipore Cat #06-520) to 800 μg of cell lysate ([…] concentration). Precipitated proteins were then analyzed as described previously. For immunostaining antibodies used—anti-α1 Na/K-ATPase antibody (Millipore Cat #05-369) and Alexa Fluor 488-conjugated anti-mouse secondary antibody.

Src [3] = assay: Src activation (pY418 Src/c-Src) by Western blot in DU-P1 and A4-7 cells; type: cell-based, human; details: different concentrations of EGF for 5 minutes
Experimental: as §1, §2

EGFR [4] = assay: EGFR activation (pY845 EGFR/EGFR) by Western blot in DU-P1 and A4-7 cells; type: cell-based, human; details: different concentrations of EGF for 5 minutes
Experimental: as §1, §2

Src [5] = assay: Src activation (pY418Src/c-Src) by Western blot in LLC-PK1, AAC-19 and Y260A cells; type: cell-based, porcine; details: for Src phosphorylation (pY418Src/c-Src): different concentrations of ouabain for 10 minutes
Experimental: as §3, §4

AAC-19 and Y260A cells [6] = assay: Cellular ATP content (CellTiter-Glo) under glycolysis inhibition; type: cell-based, porcine; details: Y260A cells compared to AAC-19 cells; 2-DG 45 minutes in serum-free DMEM
Experimental: (§5) Biochemical measurement of ATP and lactate. ATP measurements were performed using CellTiter-Glo Luminescent Cell Viability Assay kit. 10,000 cells per well were cultured in 96-well culture plate. After treatment with 2-DG at indicated concentrations in serum-free DMEM for 45 minutes, assay reagents were reconstituted and added into culture plate. Luminescent counts of the reactants were determined from an opaque-walled 96-well plate with a microplate reader. Lactate measurement was done by colorimetric methods as described by previously. In PP2 study, culture medium containing serum and 5 μM PP2 was replaced in culture dish and collected after 4 hours for measurements.

AAC-19 and Y260A cells [7] = assay: Extracellular acidification rate (ECAR), Seahorse, in AAC-19 and Y260A cells; type: cell-based, porcine; details: for ECAR after oligomycin (maximal capacity of glycolysis): after addition of glucose
Experimental: Bioenergetics. Properties of cellular bioenergetics were characterized using Seahorse XFp Extracellular Flux Analyzer by measuring oxygen consumption rate (OCR) and extracellular acidification rate (ECAR) following the guidelines provided by the manufacturer. Prior to the start of Seahorse assay, optimal FCCP concentration for each cell line was determined by titration studies. Unless indicated otherwise, 10,000 cells per well were seeded with culture medium. Bicarbonate-free medium (Agilent Technologies) with different substrates (10 mM glucose, 2 mM glutamine and 1 mM pyruvate for Cell Mito Stress Test assays; 2 mM glutamine for Glycolysis Stress Test assays) was replaced one hour prior to the assay. Baseline OCR and ECAR rates were measured three times before various inhibitors, stimulants, substrates, or compounds were added through the drug delivery ports. In the PP2 study, cells were pretreated with 5 μM PP2 for 4 h and then analyzed.

Akt = Akt activation (pS473Akt/Akt) by Western blot in AAC-19 and Y260A cells; type: cell-based, porcine; details: different concentrations of ouabain for 10 minutes
Experimental: as §1, §2

[8] = tested on: α1 Na/K-ATPase Y10 phosphorylation; assay: Y10 phosphorylation of α1 Na/K-ATPase in LLC-PK1 cells (immunoblot); type: cell-based, porcine
Experimental: as §1, §2

ERK1/2 = assay: ERK activation (pERK1/2/ERK1/2) by Western blot in AAC-19 and Y260A cells; type: cell-based, porcine; details: for ERK phosphorylation (pERK1/2/ERK1/2): different concentrations of ouabain for 10 minutes
Experimental: as §3, §4

Y260A cells [9] = assay: Lactate production in culture medium of Y260A cells; type: cell-based, porcine; details: 5 μM PP2 for 4 h
Experimental: as §5

A4-7 cells [10] = assay: Cell proliferation of A4-7 cells; type: cell-based, human; details: PP2, 48 hours
Experimental: Cell growth assay and MTT assay. Cell growth assay and MTT assay were performed as previously described.

A4-7 cells [11] = assay: Lactate production in medium of A4-7 cells; type: cell-based, human; details: 5 μM PP2 for 4 h
Experimental: as §5

Y260A cells [12] = assay: qPCR of upregulated metabolic genes in Y260A cells; type: cell-based, porcine; details: 5 μM PP2 overnight
Source text: RNA Extraction, cDNA Synthesis and Quantitative PCR. Total RNA was isolated with the QIAGEN RNeasy Mini Kit. The same amount of total RNA was used for synthesizing first-stand cDNA with the SuperScript III First-Stand Synthesis SuperMix for qRT-PCR (ThermoFisher). The cDNA from each sample was used as a template for the quantitative PCR (Syber green) with Roche LightCycler® 480 Real-Time PCR System. All primers were synthesized by Integrated DNA Technologies (IDT). β-actin was used as internal control.

EGF: recombinant EGF, stimulates EGFR/Src signaling
phosphorylation of EGFR at Y845 (EGFR [1]): stimulated | Y260 phosphorylation of Na/K-ATPase ([2]; recombinant EGF, time and dose): time- and dose-dependent stimulation | Src activation (pY418 Src/c-Src) (Src [3]; A4-7 cells): not in A4-7 cells | Src activation (pY418 Src/c-Src) (Src [3]; DU-P1 cells): able to stimulate | Y845 phosphorylation of EGFR (EGFR [4]; A4-7 cells): not in A4-7 cells | Y845 phosphorylation of EGFR (EGFR [4]; DU-P1 cells): able to stimulate | Src kinase activity (Src [5]; AAC-19 cells, different concentrations of EGF): stimulated | Src phosphorylation at Y418 (Src [5]; LLC-PK1 cells, recombinant EGF, time and dose): time- and dose-dependent stimulation

O=CC[C@@H](O)[C@H](O)[C@H](O)CO [2-DG, 2-deoxyglucose]
cellular ATP content in response to inhibition of glycolysis (AAC-19 and Y260A cells [6]): much more sensitive | ECAR after 2-DG (AAC-19 and Y260A cells [7]; AAC-19 and Y260A cells, after glucose and oligomycin): completely reversed the increase

CC[C@H]1/C=C/C=C/C[C@@H](C)[C@H](O)[C@@](C)(O)C(=O)[C@@H](C)[C@H](O)[C@@H](C)C(=O)[C@@H](C)[C@H](O)[C@@H](C)/C=C/C(=O)O[C@@H]2[C@H](C)[C@H](CC1)O[C@]1(CC[C@H](C)[C@H](C[C@@H](C)O)O1)[C@H]2C [oligomycin]
ECAR after oligomycin (maximal capacity of glycolysis) (AAC-19 and Y260A cells [7]; AAC-19 cells): further increase | ECAR after oligomycin (maximal capacity of glycolysis) (AAC-19 and Y260A cells [7]; Y260A cells): not in Y260A cells

C[C@@H]1O[C@@H](O[C@H]2C[C@@H](O)[C@]3(CO)[C@H]4[C@H](O)C[C@]5(C)[C@@H](C6=CC(=O)OC6)CC[C@]5(O)[C@@H]4CC[C@]3(O)C2)[C@H](O)[C@H](O)[C@H]1O [ouabain]
Y260 phosphorylation ([2]; ouabain, function of time and concentration): increased | Akt phosphorylation (pS473Akt/Akt) (Akt; AAC-19 cells): stimulated | Akt phosphorylation (pS473Akt/Akt) (Akt; Y260A mutant cells): abolished | Src phosphorylation (pY418Src/c-Src) (Src [5]; AAC-19 cells): stimulated | Src phosphorylation (pY418Src/c-Src) (Src [5]; Y260A mutant cells): abolished | Y10 phosphorylation ([8]; ouabain): no effect | ERK phosphorylation (pERK1/2/ERK1/2) (ERK1/2; AAC-19 cells): stimulated | ERK phosphorylation (pERK1/2/ERK1/2) (ERK1/2; Y260A mutant cells): abolished | ouabain-induced ERK activation (pERK1/2/ERK 1/2) (ERK1/2; Y260A mutant clone 24 cells): failed to respond

CC(C)(C)n1nc(-c2ccc(Cl)cc2)c2c(N)ncnc21 [PP2]
lactate production (Y260A cells [9]): sufficient to reduce; also recorded: blocked the increase | cell proliferation rate (A4-7 cells [10]): reversed; also recorded: inhibition | Y260 phosphorylation ([2]; PP2 5 μM, 30 minutes pretreatment): attenuated | glycolysis rate (ECAR) (AAC-19 and Y260A cells [7]; Y260A cells, 5 μM PP2 for 4 h): sufficient to reduce | lactate production (increased in A4-7 cells) (A4-7 cells [11]): sensitive to Src inhibition | Y10 phosphorylation ([8]; PP2 5 μM, 30 minutes): Neither inhibitor nor knockout of Src kinase affected | basal ERK activities (increased in Y260A cells) (ERK1/2; Y260A cells, PP2): sensitive to PP2; also recorded: sensitive to Src inhibitor | mRNA level of upregulated glycolytic/metabolic genes (Y260A cells [12]): restored the mRNA level of most of these upregulated genes; also recorded: reduced the expression
